Literature values in US6576617B2, “Direct action anti-mycotic” (International Fiber Corporation, priority 1999, dated 2003).

Tests used:
[1] = test system: mold, yeast, and fungal growth; settings: agar medium
[2] = test system: mold, yeast, or fungus growth; settings: non-liquid foods for human consumption; conventional natamycin

Structure (SMILES): C[C@@H]1C/C=C/C=C/C=C/C=C/[C@H](O[C@@H]2O[C@H](C)[C@@H](O)[C@H](N)[C@@H]2O)C[C@@H]2O[C@](O)(C[C@@H](O)C[C@H]3O[C@@H]3/C=C/C(=O)O1)C[C@H](O)[C@H]2C(=O)O [natamycin]
- concentration with anti-mycotic activity [1]: ≥ 1 ppm
- concentration necessary for effective mold, yeast, and fungus control [2]: greater than 5 ppm
